molecular target: T1, ACAT of HepG2 cells (Homo sapiens, UniProt P35610); assay: Inhibitory activity against ACAT of HepG2 cells derived from human liver cancer cells; format: cell-based; conditions: radio-labelled oleic acid/BSA complex, cholesterol oleate produced
T1 construct: endogenous in cells; host or cells: HepG2
T1 sequence (P35610 1-550): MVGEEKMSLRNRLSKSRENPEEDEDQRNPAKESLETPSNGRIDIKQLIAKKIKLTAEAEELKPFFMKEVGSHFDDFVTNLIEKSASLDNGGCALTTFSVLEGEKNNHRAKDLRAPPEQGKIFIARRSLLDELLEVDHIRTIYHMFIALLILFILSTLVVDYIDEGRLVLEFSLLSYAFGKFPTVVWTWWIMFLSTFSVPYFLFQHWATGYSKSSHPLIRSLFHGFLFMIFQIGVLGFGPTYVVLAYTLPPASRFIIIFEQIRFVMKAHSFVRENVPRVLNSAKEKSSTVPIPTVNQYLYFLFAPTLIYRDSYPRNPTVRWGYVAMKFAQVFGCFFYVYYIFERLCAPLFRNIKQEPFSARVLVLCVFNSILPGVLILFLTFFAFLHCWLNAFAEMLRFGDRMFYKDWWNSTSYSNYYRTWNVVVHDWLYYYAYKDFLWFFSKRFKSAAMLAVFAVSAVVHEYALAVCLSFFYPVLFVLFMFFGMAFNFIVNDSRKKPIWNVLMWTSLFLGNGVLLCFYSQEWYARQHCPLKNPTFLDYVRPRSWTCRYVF
Procedure: Inhibitory Activity against ACAT of HepG2 cells Derived from Human Liver Cancer Cells Inhibitory activities of the compounds of the present invention against ACAT were measured by the method described below. HepG2 cells derived from human liver cancer cells were used for the measurement of the ACAT activity. A complex of radio-labelled oleic acid and bovine serum albumin was added to a culture of the cells, and the activity was measured by observing the amount of radio-labelled cholesterol oleate produced from the radio-labelled oleic acid in the cells.

Row | IC50 [µM] | Compound
1 | 0.262 | COc1ccc(-n2ccnc2)cc1CN(C(=O)Nc1c(C)cccc1OCCCN1CCN(c2ccccc2)CC1)C1CCCC1 [Example 72]
2 | 0.22 | CCCCCN(Cc1cccc(-n2ccnc2)c1)C(=O)Nc1c(C)cccc1OCCCN1CCN(c2ccccc2)CC1 [Example 37]
3 | 0.635 | CN(Cc1ccccc1OCc1ccccn1)C(=O)Nc1c(OCCCN2CCN(c3ccccc3)CC2)ccc2c1CCCC2 [Example 71]
4 | 0.045 | CCCCCN(Cc1cc(-n2cncn2)ccc1OC)C(=O)Nc1c(C)cccc1OCCCN1CCN(c2ccccc2)CC1 [Example 49]
5 | 0.363 | CCCCCN(Cc1cc(-n2ccnc2)ccc1OC)C(=O)Nc1c(C)cccc1OCCCN1CCN(c2ccccn2)CC1 [Example 17]
6 | 0.32 | CCCCCN(Cc1ccc(OC)cc1OCc1ccccn1)C(=O)Nc1c(C)cccc1OCCCN1CCN(c2ccccc2)CC1 [Example 40]
7 | 0.24 | COc1ccc(-n2ccnc2)cc1CN(Cc1ccccc1)C(=O)Nc1c(C)cccc1OCCCN1CCN(c2ccccc2)CC1 [Example 14]
8 | 0.732 | CCCCCN(Cc1cccc(OC)c1OCc1ccccn1)C(=O)Nc1c(OCCCN2CCN(c3ccccc3)CC2)ccc2c1CCCC2 [Example 28]
9 | 0.27 | CCCCCN(Cc1cccc(OCc2ccccn2)c1)C(=O)Nc1c(C)cccc1OCCCN1CCN(c2ccccc2)CC1 [Example 36]
10 | 0.156 | CCCN(Cc1cc(-n2ccnc2)ccc1OC)C(=O)Nc1c(C)cccc1OCCCN1CCN(c2ccccc2)CC1 [Example 19]
11 | 0.282 | CCCCCN(Cc1ccc(-n2ccnc2)cc1)C(=O)Nc1c(C)cccc1OCCCN1CCN(c2ccccc2)CC1 [Example 38]
12 | 0.138 | CCCCCN(Cc1cc(-n2ccnc2)ccc1OCc1ccccn1)C(=O)Nc1c(C)cccc1OCCCN1CCN(c2ccccc2)CC1 [Example 31]
13 | 0.851 | CCCCCN(Cc1cc(-n2ccnc2)cc(OC)c1OC)C(=O)Nc1c(C)cccc1OCCCN1CCN(c2ccccc2)CC1 [Example 20]
14 | 0.458 | COc1ccc(-n2ccnc2)cc1CN(CC(C)C)C(=O)Nc1c(C)cccc1OCCCN1CCN(c2ccccc2)CC1 [Example 73]
15 | 0.081 | CCCCCN(Cc1cc(-n2cccn2)ccc1OC)C(=O)Nc1c(C)cccc1OCCCN1CCN(c2ccccc2)CC1 [Example 47]
16 | 0.516 | CCCCCN(Cc1ccccc1-n1ccnc1)C(=O)Nc1c(C)cccc1OCCCN1CCN(c2ccccc2)CC1 [Example 15]
17 | 0.414 | CCCCCCCN(Cc1cccc(OC)c1OCc1ccccc1)C(=O)Nc1c(OCCCN2CCN(c3ccccc3)CC2)ccc2c1CCCC2 [Example 8]
18 | 0.22 | CCCCCN(Cc1cc(OC)ccc1-n1ccnc1)C(=O)Nc1c(C)cccc1OCCCN1CCN(c2ccccc2)CC1 [Example 57]
19 | 0.054 | CCCCCN(CCc1cc(-n2ccnc2)ccc1OC)C(=O)Nc1c(C)cccc1OCCCN1CCN(c2ccccc2)CC1 [Example 56]
20 | 0.386 | COc1ccc(-n2ccnc2)cc1CN(C(=O)Nc1c(C)cccc1OCCCN1CCN(c2ccccc2)CC1)C(C)C [Example 74]

Row | IC50 [µM] | Compound
21 | 0.631 | CCCN(Cc1ccccc1OCc1ccncc1)C(=O)Nc1c(OCCCN2CCN(c3ccccc3)CC2)ccc2c1CCCC2 [Example 70]
22 | 0.595 | CCCCCN(Cc1ccc(-n2ccnc2)cc1)C(=O)Nc1c(C)cccc1OCCCN1CCN(c2ccccn2)CC1 [Example 12]
23 | 0.124 | O=C(Nc1c(OCCCN2CCN(c3ccccc3)CC2)ccc2c1CCCC2)N(CCCc1ccccc1)Cc1ccccc1OCc1ccccn1 [Example 67]
24 | 0.389 | CCCCCN(Cc1ccc(-n2ccnc2)cc1)C(=O)Nc1c(OCCCN2CCN(c3ccccc3)CC2)ccc2c1CCCC2 [Example 10]
25 | 0.449 | CCCCCN(Cc1cc(-n2ccnc2)cc2c1OCO2)C(=O)Nc1c(C)cccc1OCCCN1CCN(c2ccccc2)CC1 [Example 24]
26 | 0.366 | COc1cccc(CN(CCCc2ccccc2)C(=O)Nc2c(OCCCN3CCN(c4ccccc4)CC3)ccc3c2CCCC3)c1OCc1ccccc1 [Example 9]
27 | 0.187 | CCCN(Cc1ccccc1OCc1ccccn1)C(=O)Nc1c(OCCCN2CCN(c3ccccc3)CC2)ccc2c1CCCC2 [Example 68]
28 | 0.234 | CCCCCN(Cc1cc(-n2ccnc2)ccc1OCc1ccccn1)C(=O)Nc1c(C)cccc1OCCCN1CCN(c2ccccc2)CC1 [Example 30]
29 | 0.067 | COc1ccc(-n2ccnc2)cc1CN(Cc1ccccc1)C(=O)Nc1c(OCCCN2CCN(c3ccccc3)CC2)ccc2c1CCCC2 [Example 13]
30 | 0.289 | CCCN(Cc1ccccc1OCc1cccnc1)C(=O)Nc1c(OCCCN2CCN(c3ccccc3)CC2)ccc2c1CCCC2 [Example 69]
31 | 0.743 | CCCCCN(Cc1cccc(OC)c1OCc1ccccn1)C(=O)Nc1c(C)cccc1OCCCN1CCN(c2ccccc2)CC1 [Example 26]
32 | 0.483 | CCCCCN(Cc1cc(-n2cccc2)ccc1OC)C(=O)Nc1c(C)cccc1OCCCN1CCN(c2ccccc2)CC1 [Example 55]
33 | 0.4 | CCCCCN(Cc1ccc(OCc2ccccn2)c(OC)c1)C(=O)Nc1c(C)cccc1OCCCN1CCN(c2ccccc2)CC1 [Example 44]
34 | 0.6 | CCCCCN(Cc1ccccc1OCc1ccccn1)C(=O)Nc1c(C)cccc1OCCCN1CCN(c2ccccc2)CC1 [Example 32]
35 | 0.076 | CCCCCN(CCc1ccc(-n2ccnc2)c(OC)c1)C(=O)Nc1c(C)cccc1OCCCN1CCN(c2ccccc2)CC1 [Example 46]
36 | 0.606 | CCCCCN(CCc1cc(-n2ccnc2)cc2c1OCO2)C(=O)Nc1c(C)cccc1OCCCN1CCN(c2ccccc2)CC1 [Example 53]
37 | 0.128 | CCCCCN(Cc1cc(-n2ccnc2)ccc1OC)C(=O)Nc1c(C)cccc1OCCCN1CCN(c2ccccc2)CC1 [Example 1, N-{5-(1-imidazolyl)-2-methoxyphenyl}methyl-N-(1-pentyl)-N'-[2-{3-(4-phenyl-1-piperazinyl)propoxy}-6-methylphenyl]urea]
38 | 0.189 | CCCCCN(Cc1ccc(-n2ccnc2)cc1)C(=O)Nc1c(C)cccc1OCCCN1CCN(c2ccccc2)CC1 [Example 11]
39 | 0.634 | CCCN(Cc1cc(-n2ccnc2)cc2c1OCO2)C(=O)Nc1c(C)cccc1OCCCN1CCN(c2ccccc2)CC1 [Example 23]

From patent publication US5807860A, “Urea derivatives” (Mitsubishi Chemical Corporation, priority 1995, dated 1998)
